Reference: PubChem BioAssay (NCI)
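Where inhibition never reached the appropriate level, the endpoint shown equals the highest concentration tested. Otherwise, values were interpolated linearly from a five-concentration, 48-hour dose response in 96-well plates. GI50: concentration for 50% inhibition of growth. TGI: concentration producing complete growth inhibition.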

What was measured:
Experiment in all cases: DTP human tumour cell line panel, 48 h; in the data active = GI50 below about 0.43 µM; inactive = the rest
[1] = test system: SN12C renal
[2] = test system: ACHN renal
[3] = test system: CAKI-1 renal
[4] = test system: SK-OV-3 ovarian
[5] = test system: OVCAR-4 ovarian
[6] = test system: MALME-3M melanoma
[7] = test system: OVCAR-8 ovarian
[8] = test system: KM12 colon
[9] = test system: HT29 colon
[10] = test system: SR leukemia
[11] = test system: TK-10 renal
[12] = test system: SK-MEL-5 melanoma
[13] = test system: UACC-257 melanoma
[14] = test system: SNB-19 CNS
[15] = test system: HOP-92 NSCLC
[16] = test system: EKVX NSCLC
[17] = test system: SF-295 CNS
[18] = test system: 786-0 renal
[19] = test system: MOLT-4 leukemia
[20] = test system: MDA-MB-231 breast
[21] = test system: SNB-75 CNS
[22] = test system: HCT-116 colon
[23] = test system: SF-268 CNS
[24] = test system: HOP-62 NSCLC
[25] = test system: M14 melanoma
[26] = test system: HCC-2998 colon
[27] = test system: A498 renal
[28] = test system: NCI-H522 lung
[29] = test system: MCF7 breast
[30] = test system: BT-549 breast
[31] = test system: U251 CNS
[32] = test system: UACC-62 melanoma
[33] = test system: T-47D breast
[34] = test system: RXF 393 renal
[35] = test system: SK-MEL-28 melanoma
[36] = test system: HS 578T breast
[37] = test system: DU-145 prostate
[38] = test system: SK-MEL-2 melanoma
[39] = test system: RPMI-8226 leukemia
[40] = test system: MDA-MB-435
[41] = test system: SF-539 CNS
[42] = test system: PC-3 prostate
[43] = test system: UO-31 renal
[44] = test system: HCT-15 colon
[45] = test system: IGROV1 ovarian
[46] = test system: NCI/ADR-RES ovarian
[47] = test system: K-562 leukemia
[48] = test system: HL-60(TB) leukemia
[49] = test system: LOX IMVI melanoma
[50] = test system: OVCAR-5 ovarian
[51] = test system: A549 NSCLC
[52] = test system: OVCAR-3 ovarian
[53] = test system: SW-620 colon
[54] = test system: NCI-H226 lung

CCCCC(SC(=S)N1CCCC1)C(=O)Nc1nc(CC(=O)OCC)cs1 (stereo not drawn)
inactive: GI50 [1] 85.2 µM | GI50 [2] 59.3 µM | GI50 [3] > 100 µM | GI50 [4] 97.4 µM | GI50 [5] 43.4 µM | GI50 [6] > 100 µM | GI50 [7] 40.1 µM | GI50 [8] 45.3 µM | GI50 [9] 21.8 µM | GI50 [10] 4.83 µM | GI50 [11] > 100 µM | GI50 [12] 13.1 µM | GI50 [13] 47.9 µM | GI50 [14] 65.1 µM | GI50 [15] 36.6 µM | GI50 [16] 56.4 µM | GI50 [17] 47.3 µM | GI50 [18] 62.2 µM | GI50 [19] 1.91 µM | GI50 [20] > 100 µM | GI50 [21] > 100 µM | GI50 [22] 28.9 µM | GI50 [23] 37.5 µM | GI50 [24] > 100 µM | GI50 [25] 32.9 µM | GI50 [26] 99.5 µM | GI50 [27] 64.6 µM | GI50 [28] 6.87 µM | GI50 [29] 1.25 µM | GI50 [30] 59.7 µM | GI50 [31] 53.8 µM | GI50 [32] 76.4 µM | GI50 [33] 30.5 µM | GI50 [34] 41.7 µM | GI50 [35] 67.4 µM | GI50 [36] > 100 µM | GI50 [37] 67.3 µM | GI50 [38] 36.1 µM | GI50 [39] 10.6 µM | GI50 [40] 35.4 µM | GI50 [41] 72.4 µM | GI50 [42] 0.985 µM | GI50 [43] 36.9 µM | GI50 [44] 66.1 µM | GI50 [45] 7.98 µM | GI50 [46] 37.6 µM | GI50 [47] 15.6 µM | GI50 [48] 25 µM | GI50 [49] 36.1 µM | GI50 [50] 37.2 µM | GI50 [51] 31.7 µM | GI50 [52] 9.52 µM | GI50 [53] 68.6 µM | GI50 [54] 71 µM
> 100 µM: TGI [1] | TGI [2] | TGI [3] | TGI [4] | TGI [5] | TGI [6] | TGI [7] | TGI [8] | TGI [9] | TGI [10] | TGI [11] | TGI [13] | TGI [14] | TGI [15] | TGI [16] | TGI [17] | TGI [18] | TGI [19] | TGI [20] | TGI [21] | TGI [22] | TGI [23] | TGI [24] | TGI [25] | TGI [26] | TGI [27] | TGI [28] | TGI [29] | TGI [30] | TGI [31] | TGI [32] | TGI [33] | TGI [34] | TGI [35] | TGI [36] | TGI [37] | TGI [38] | TGI [40] | TGI [41] | TGI [42] | TGI [43] | TGI [44] | TGI [45] | TGI [46] | TGI [47] | TGI [48] | TGI [49] | TGI [50] | TGI [51] | TGI [52] | TGI [53] | TGI [54]
45.6 µM: TGI [12]
90.9 µM: TGI [39]
